Experimental findings from patent US8975234B2, “Anti-bacterial infection, inflammation, and leukemia composition and use thereof” (priority 2011, dated 2015) are described below.

One data set relates to MRSA 18271. Kind of data set: Minimum inhibitory concentration (broth microdilution) and FIC index. It counts as cell-based, Staphylococcus aureus. The conditions noted are these: Staphylococcus aureus, MRSA, read-out: Minimum inhibitory concentration. For orientation: Broth dilution looks for growth in wells or tubes with falling amounts of substance.
The next data set deals with MRSA 18631. Described as above. Format: cell-based, Staphylococcus aureus. The conditions noted are these: Staphylococcus aureus, MRSA, read-out: Minimum inhibitory concentration.
The test system of a further data set is MRSA 19615. The description is as above. It counts as cell-based, Staphylococcus aureus. The conditions noted are these: Staphylococcus aureus, MRSA, read-out: Minimum inhibitory concentration.
For the next data set, the system named is bacteria. Kind of data set: Transmission electron microscopy of treated bacteria. It counts as cell-based. The conditions noted are these: 40 μg/mL; cultured for 10 minutes; compared with control group. On the procedure: Before observed by TEM, the bacteria were cultured overnight on plate, collected and suspended in either 10 mL MHB or 10 mL MHB containing 40 μg/mL Tellimagrandin II. The bacterial solution were diluted to an optical density at 600 nm (OD600) of 0.1, and cultured for 10 minutes or 24 hours. Then, the cells were centrifuged at 10,000 rpm/min and suspended in the fixing fluid, the fixed time can not exceed 24 hours. The sample for TEM was sent to departments of Laboratory Medicine and Clinical Research, Kaohsiung Medical University Hospital (Kaohsiung, Taiwan, ROC).

In data set [1] the test system is mouse macrophage cell line RAW264.7. The data set is described as follows: Cell viability assay (alamarBlue). It counts as cell-based. The conditions noted are these: 50 μg/mL or lower doses, 24 hours. On the procedure: AlamarBlue reagent was used to assess cell viability. RAW264.7 cells (2×10^4 in 200 μL of medium) were seeded on the 96-well plate. After overnight incubation, cells were serum starved in DMEM medium containing 2% Fetal Bovine Serum (FBS) for 3 hours. There were several groups: cells without DMSO or Tellimagrandin II treatment (controls); cell treated with DMSO (control); cells treated with Tellimagrandin II with different concentrations (10, 25, 50, 75 and 100 μM, diluted in DMSO) (test groups). Each group was determined in duplicate.
After 24 hours, the cell medium was removed and discarded, and the cells were resuspended with 180 μL of fresh culture medium. Each cell suspension was added with 20 μL alamarBlue. The plate was then placed in incubator for another 4 hours. After incubation, the absorbance of the medium was measured at 570 and 600 nm, and cell viability was analyzed by using the following formula:
[formula] • O1: molar extinction coefficient (E) of oxidized alamarBlue at 570 nm • O2: molar extinction coefficient (E) of oxidized alamarBlue at 600 nm • A1: absorbance of test wells at 570 nm • A2: absorbance of test wells at 600 nm • P1: absorbance of positive growth control well at 570 nm • P2: absorbance of positive growth control well at 600 nm

For data set [2], the system named is LPS-induced NO in RAW264.7 cells. The data set is described as follows: NO production analysis (Griess reagent). The conditions noted are these: before or after LPS, 25 and 50 μM statistically significant. Format: cell-based, mouse. The protocol: Murine macrophage cells were plated in each well on a 12-well plate at a density of about 4×10^5 RAW264.7 cells/mL. After overnight incubation, cells were serum starved in DMEM medium containing 2% Fetal Bovine Serum (FBS) for 3 hours. […] Endogenous NO production, induced by LPS. Cells were treated with Tellimagrandin II at various concentrations (10, 25 and 50 μM) before and after being treated with LPS. For NO production analysis, culture supernatants were brought to 96-well plate and mixed with Griess reagent. Plates were incubated and then the absorbance was measured at 520 nm. Sodium nitrite (NaNO2) solution (0 M˜0.1 M, 8 points) prepared in DMEM was used to generate a standard curve. The nitrite concentrations of samples were determined by interpolation from the standard curve. […] FIG. 10 is framed by a an x-axis labeled the relative order in LPS or Tellimagrandin II treatment and concentrations, and y-axis labeled NO concentration. The control (LPS only) and test groups were compared using a t-test, *p<0.05 (significant) and #p<0.01 (highly significant).
In general terms: Nitrite, measured by Griess reagent, commonly stands in for NO production.

Data set [3] concerns LPS-induced PGE2 in RAW264.7 cells. The data set is described as follows: Prostaglandin E2 (PGE2) assay. It counts as cell-based, mouse. The conditions noted are these: 25 or 50 μM added 30 minutes before LPS. The protocol:
One milliliter (1 mL) of murine macrophage cell line RAW264.7 (4×10^5 cells/mL) was seeded on a 12-well plate overnight. After overnight incubation, cells were serum starved in DMEM medium containing 2% Fetal Bovine Serum (FBS) for 3 hours. Then, Tellimagrandin II was added so that final concentrations of 10, 25 and 50 μM were obtained. Thus, after a 30-min incubation, murine macrophage cells were treated with LPS for 16 h and the cell culture supernatant was collected. Cell-free supernatants were diluted and PGE 2 in culture supernatants were detected by using a PGE2 assay kit (R&D system). The purpose of the study was to evaluate the LPS-induced PGE2 expression by co-treating with Tellimagrandin II.

A further data set has as its system K-562 cells. The data set is described as follows: ROS test (DCF-DA). Format: cell-based, human. The conditions noted are these: 40 μM; 2 hours. On the procedure: A radical specific fluorescent dye, 2′,7′-dichlorofluorescein (DCF-DA) was used to detect H2O2/NO-based radicals or O2— in cells respectively.
A total of 3 mL cell solution at the concentration of 1×10^6 K-562 cells per mL was cultured with 6 cm cell culture plates in an incubator supplied with 5% CO2 at 37° C. for 30 minutes so that cells could adapt to the environment. Tellimagrandin II solutions of different concentrations were added by order so that the final concentrations are 0, 30, 40 and 50 μM respectively. The solution was placed in incubator with 5% CO2 at 37° C. for 2 hours before being centrifuged at 3,500 rpm at 4° C. for 5 minutes and then being rinsed by PBS once. 2′,7′-dichlorofluorescein (DCF-DA) was added before the solution was put into dark incubator for 45 minutes and then rinsed by PBS once again. Finally, 1 mL PBS was used to resuspend the cells before BD FACScan was used to detect the fluorescent signal.

In the case of `O=C(OC1O[C@@H]2COC(=O)c3cc(O)c(O)c(O)c3-c3c(cc(O)c(O)c3O)C(=O)O[C@H]2[C@H](OC(=O)c2cc(O)c(O)c(O)c2)[C@H]1OC(=O)c1cc(O)c(O)c(O)c1)c1cc(O)c(O)c(O)c1` (some centres unmarked) [Tellimagrandin II], the MIC in the data set with MRSA 18271, in the data set with MRSA 18631 and in the data set with MRSA 19615 was 128 µg/mL each time. Besides, the “phenotype of bacteria in electron microscopy” value in the data set with bacteria is recorded as “unsmooth tooth surfaces”. Further, in data set [1], the Cell viability result is on record as “not affected significant”. Further, the “production of LPS-induced NO” value in data set [2] is “decreased the production of LPS-induced NO”. For the same molecule, the “expression of PGE2” value in data set [3] is “significantly reduced the expression of PGE2”. In the data set on K-562 cells, the “ROS in K-562 cells” value is reported as “observed to increase”.
